# In ChEMBL document CHEMBL1909046, “DrugMatrix in vitro pharmacology data”:
# pIC50, pKi: −log10 of the molar value.
# Legend:
# [1] = molecular target: T1, D(4) dopamine receptor (Homo sapiens, UniProt P21917); test: DRUGMATRIX: Dopamine D4.2 radioligand binding (ligand: [3H] Spiperone); type: cell membranes, CHO-K1, Membrane; settings: cho-k1; Not Active = under 50% inhibition at 10 µM
# T1 sequence (P21917 whole entry): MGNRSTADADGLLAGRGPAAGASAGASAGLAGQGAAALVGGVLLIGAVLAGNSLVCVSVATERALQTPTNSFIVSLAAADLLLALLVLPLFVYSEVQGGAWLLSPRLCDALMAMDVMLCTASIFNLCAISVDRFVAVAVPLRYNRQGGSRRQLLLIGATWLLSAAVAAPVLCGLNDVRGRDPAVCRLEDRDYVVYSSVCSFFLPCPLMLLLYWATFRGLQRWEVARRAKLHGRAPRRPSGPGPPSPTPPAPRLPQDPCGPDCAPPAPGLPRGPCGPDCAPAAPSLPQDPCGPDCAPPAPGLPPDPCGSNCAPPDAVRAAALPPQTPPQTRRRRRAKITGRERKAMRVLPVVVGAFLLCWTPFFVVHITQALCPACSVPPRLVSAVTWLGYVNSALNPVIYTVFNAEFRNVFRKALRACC
# [2] = molecular target: Cannabinoid receptor 1 (Homo sapiens, UniProt P21554); type: cell membranes, Chem-1, Membrane; also: in other assays of this panel Not Active means under 50% inhibition at 10 µM
# [3] = molecular target: T2, Cytochrome P450 1A2 (Homo sapiens, UniProt P05177); settings: bti-tn-5b1-4; also: in other assays of this panel Not Active means under 50% inhibition at 10 µM
# T2 sequence (P05177 whole entry): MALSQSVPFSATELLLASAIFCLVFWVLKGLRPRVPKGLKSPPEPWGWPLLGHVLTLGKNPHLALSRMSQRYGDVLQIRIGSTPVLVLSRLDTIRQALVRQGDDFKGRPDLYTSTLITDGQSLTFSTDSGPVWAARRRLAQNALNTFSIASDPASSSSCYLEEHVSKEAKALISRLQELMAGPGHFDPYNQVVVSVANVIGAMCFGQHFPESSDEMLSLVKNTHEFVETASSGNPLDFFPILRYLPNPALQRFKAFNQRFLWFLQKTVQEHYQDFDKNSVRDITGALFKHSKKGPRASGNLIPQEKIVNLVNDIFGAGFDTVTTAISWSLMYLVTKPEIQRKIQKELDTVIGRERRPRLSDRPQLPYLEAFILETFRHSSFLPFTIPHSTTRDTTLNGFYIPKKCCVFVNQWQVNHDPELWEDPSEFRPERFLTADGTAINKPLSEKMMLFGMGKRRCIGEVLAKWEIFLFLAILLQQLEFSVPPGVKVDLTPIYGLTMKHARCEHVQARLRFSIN
# [4] = molecular target: Acetylcholinesterase (Homo sapiens, UniProt P22303); test: DRUGMATRIX: Acetylcholinesterase enzyme inhibition (substrate: acetylthiocholine); type: cell-based, HEK293; settings: hek293; Not Active = under 50% inhibition at 10 µM
# [5] = molecular target: Protein phosphatase 3 catalytic subunit alpha (Homo sapiens, UniProt Q08209); design: species or system Escherichia coli;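 also: inhibition of calcineurin (PP2B) enzyme activity, measured with DiFMUP as the substrate; in other assays of this panel Not Active means under 50% inhibition at 10 µM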
# [6] = DRUGMATRIX: Glutamate, Kainate radioligand binding (ligand: [3H] Kainic acid); type: cell membranes, Rattus norvegicus, Wistar, Brain, Membrane; settings: Not Active = under 50% inhibition at 10 µM
# [7] = molecular target: T3, Angiotensin-converting enzyme (Oryctolagus cuniculus, UniProt P12822); test: biochemical; type: tissue-based, Lung;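 also: enzymatic inhibition of angiotensin-converting enzyme measured with FAPGG as the substrate; in other assays of this panel Not Active means under 50% inhibition at 10 µM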
# T3 sequence (P12822 whole entry): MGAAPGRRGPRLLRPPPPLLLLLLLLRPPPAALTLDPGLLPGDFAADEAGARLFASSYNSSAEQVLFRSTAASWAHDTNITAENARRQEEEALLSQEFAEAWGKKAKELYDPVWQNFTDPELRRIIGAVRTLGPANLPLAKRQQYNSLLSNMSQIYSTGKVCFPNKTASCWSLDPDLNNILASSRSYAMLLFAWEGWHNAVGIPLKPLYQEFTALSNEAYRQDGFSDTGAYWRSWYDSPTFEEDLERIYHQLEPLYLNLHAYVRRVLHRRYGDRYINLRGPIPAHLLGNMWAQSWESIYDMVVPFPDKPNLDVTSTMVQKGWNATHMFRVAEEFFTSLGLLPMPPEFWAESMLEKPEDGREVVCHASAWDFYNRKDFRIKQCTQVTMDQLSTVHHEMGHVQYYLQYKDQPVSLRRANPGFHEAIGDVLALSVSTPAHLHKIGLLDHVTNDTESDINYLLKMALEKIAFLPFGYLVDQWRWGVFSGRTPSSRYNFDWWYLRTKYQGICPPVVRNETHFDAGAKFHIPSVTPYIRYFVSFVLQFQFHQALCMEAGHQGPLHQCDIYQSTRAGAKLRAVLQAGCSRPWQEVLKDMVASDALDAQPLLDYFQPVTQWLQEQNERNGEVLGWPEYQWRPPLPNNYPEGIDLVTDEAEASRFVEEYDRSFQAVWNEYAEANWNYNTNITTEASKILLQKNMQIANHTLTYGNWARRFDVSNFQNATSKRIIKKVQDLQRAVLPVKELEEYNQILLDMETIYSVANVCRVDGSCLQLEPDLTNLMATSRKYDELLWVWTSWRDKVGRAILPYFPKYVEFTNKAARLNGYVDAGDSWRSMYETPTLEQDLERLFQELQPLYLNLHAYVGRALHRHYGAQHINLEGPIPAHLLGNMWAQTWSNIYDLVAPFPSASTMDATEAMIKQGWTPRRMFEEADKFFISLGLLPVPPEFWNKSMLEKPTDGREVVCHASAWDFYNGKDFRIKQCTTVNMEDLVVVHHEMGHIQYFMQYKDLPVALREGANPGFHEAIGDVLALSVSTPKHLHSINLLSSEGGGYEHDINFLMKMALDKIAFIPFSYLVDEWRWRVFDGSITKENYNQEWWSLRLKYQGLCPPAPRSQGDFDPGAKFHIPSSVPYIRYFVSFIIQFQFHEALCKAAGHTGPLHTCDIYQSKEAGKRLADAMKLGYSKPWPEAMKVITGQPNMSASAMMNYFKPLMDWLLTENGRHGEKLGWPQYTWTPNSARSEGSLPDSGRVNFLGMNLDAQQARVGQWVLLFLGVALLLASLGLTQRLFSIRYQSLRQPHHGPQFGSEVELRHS
# [8] = molecular target: Vascular endothelial growth factor receptor 1 (Homo sapiens, UniProt P17948); type: cell-based; settings: huvec; also: in other assays of this panel Not Active means under 50% inhibition at 10 µM
# Chain of Vascular endothelial growth factor receptor 1 (P17948 whole entry): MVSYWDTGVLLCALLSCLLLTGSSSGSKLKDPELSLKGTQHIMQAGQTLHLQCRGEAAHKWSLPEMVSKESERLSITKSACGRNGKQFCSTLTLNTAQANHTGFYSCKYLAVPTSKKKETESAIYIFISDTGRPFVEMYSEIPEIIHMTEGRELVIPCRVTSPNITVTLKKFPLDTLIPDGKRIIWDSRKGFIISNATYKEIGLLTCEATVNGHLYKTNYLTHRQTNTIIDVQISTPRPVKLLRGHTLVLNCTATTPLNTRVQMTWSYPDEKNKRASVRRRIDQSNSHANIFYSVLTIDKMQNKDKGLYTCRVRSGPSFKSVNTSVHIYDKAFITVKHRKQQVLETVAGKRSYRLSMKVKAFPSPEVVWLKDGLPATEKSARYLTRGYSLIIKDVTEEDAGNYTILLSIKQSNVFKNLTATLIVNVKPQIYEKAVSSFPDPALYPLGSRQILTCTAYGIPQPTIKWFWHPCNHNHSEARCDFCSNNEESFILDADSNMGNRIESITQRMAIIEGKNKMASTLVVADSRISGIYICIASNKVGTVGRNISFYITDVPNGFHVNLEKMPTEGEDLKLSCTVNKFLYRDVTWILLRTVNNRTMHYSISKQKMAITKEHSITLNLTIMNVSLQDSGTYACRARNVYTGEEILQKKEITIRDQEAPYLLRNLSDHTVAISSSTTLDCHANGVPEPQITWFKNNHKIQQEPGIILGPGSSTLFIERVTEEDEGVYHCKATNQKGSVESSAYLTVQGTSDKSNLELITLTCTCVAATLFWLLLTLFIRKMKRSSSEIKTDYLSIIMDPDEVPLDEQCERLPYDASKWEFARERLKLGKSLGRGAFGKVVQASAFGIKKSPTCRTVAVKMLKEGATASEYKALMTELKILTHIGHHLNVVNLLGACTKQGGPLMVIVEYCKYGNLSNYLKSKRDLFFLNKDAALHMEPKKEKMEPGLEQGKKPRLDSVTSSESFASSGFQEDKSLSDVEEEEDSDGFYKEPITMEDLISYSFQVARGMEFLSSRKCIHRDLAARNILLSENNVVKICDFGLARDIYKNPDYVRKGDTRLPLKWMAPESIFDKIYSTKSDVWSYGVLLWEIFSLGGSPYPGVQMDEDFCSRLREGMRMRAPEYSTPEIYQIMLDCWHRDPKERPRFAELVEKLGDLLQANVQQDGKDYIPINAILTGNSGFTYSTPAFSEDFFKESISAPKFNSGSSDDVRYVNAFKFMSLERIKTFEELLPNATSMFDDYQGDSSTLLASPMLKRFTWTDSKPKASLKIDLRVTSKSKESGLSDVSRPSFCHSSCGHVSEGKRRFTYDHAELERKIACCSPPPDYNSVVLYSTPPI
# Chain of Acetylcholinesterase (P22303 whole entry): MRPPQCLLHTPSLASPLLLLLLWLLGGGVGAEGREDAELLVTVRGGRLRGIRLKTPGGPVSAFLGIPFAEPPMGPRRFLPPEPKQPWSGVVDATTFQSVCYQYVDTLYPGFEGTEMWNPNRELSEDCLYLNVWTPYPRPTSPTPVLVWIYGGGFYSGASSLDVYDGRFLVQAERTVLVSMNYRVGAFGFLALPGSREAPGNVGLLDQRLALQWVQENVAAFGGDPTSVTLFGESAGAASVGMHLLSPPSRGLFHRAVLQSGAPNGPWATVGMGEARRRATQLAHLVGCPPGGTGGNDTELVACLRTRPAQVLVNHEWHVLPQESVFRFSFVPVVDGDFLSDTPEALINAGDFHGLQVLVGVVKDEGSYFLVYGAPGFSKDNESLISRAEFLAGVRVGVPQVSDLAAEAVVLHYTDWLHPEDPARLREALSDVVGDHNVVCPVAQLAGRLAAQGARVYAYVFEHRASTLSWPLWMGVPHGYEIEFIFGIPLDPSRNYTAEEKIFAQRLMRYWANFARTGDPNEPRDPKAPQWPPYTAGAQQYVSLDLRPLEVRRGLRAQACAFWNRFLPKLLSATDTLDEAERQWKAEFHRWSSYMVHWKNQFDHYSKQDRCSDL
# Chain of Cannabinoid receptor 1 (P21554 whole entry): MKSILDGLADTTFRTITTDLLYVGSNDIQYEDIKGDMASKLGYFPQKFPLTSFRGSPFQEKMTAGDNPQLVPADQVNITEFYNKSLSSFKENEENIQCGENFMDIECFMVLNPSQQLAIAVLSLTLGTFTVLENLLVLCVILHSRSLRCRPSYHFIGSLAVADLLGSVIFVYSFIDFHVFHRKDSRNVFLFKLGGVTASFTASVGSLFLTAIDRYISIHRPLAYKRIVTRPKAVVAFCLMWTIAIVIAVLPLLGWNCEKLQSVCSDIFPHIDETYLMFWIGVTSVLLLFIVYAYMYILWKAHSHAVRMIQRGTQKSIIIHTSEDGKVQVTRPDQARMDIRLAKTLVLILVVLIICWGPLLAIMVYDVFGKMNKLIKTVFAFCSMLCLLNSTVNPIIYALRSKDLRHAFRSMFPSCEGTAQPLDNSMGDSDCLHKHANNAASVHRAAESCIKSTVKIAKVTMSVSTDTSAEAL
Compound,IC50 [1],IC50 ([2]; chem-1),IC50 [3],Ki [3],IC50 [4],IC50 [5],IC50 [6],Ki [6],IC50 [7],IC50 [8],Ki [1],Ki ([2]; chem-1),Ki [4],Ki [5],Ki [7],Ki [8],pIC50 ([7]; read-out: IC50),pIC50 ([2]; read-out: IC50),pKi ([2]; read-out: Ki)
CO[C@H]1O[C@@H]2O[C@@]3(C)CC[C@H]4[C@H](C)CC[C@@H]([C@H]1C)[C@@]24OO3,Not Active,Not Active,Not Active,Not Active,Not Active,Not Active,Not Active,Not Active,Not Active,Not Active,–,–,–,–,–,–,–,–,–
O=c1[nH]c2ccccc2c2ccccc12,Not Active,Not Active,–,–,Not Active,Not Active,Not Active,Not Active,Not Active,Not Active,–,–,–,–,–,–,–,–,–
COc1ccc(C[C@H](N)C(=O)N[C@H]2[C@@H](O)[C@H](n3cnc4c(N(C)C)ncnc43)O[C@@H]2CO)cc1 [PUROMYCIN],Not Active,Not Active,Not Active,Not Active,Not Active,Not Active,Not Active,Not Active,Not Active,Not Active,–,–,–,–,–,–,–,–,–
CHROMIC CHLORIDE,Not Active,Not Active,Not Active,Not Active,Not Active,Not Active,Not Active,Not Active,Not Active,Not Active,Not Active,Not Active,Not Active,Not Active,Not Active,Not Active,–,–,–
C[C@@H]1[C@H](O)[C@@H](C)/C=C/C=C/C=C/C=C/C=C/C=C/C=C/[C@H](O[C@@H]2O[C@H](C)[C@@H](O)[C@H](N)[C@@H]2O)C[C@@H]2O[C@](O)(C[C@@H](O)C[C@@H](O)[C@H](O)CC[C@@H](O)C[C@@H](O)CC(=O)O[C@H]1C)C[C@H](O)[C@H]2C(=O)O [AMPHOTERICIN B],Not Active,Not Active,Not Active,Not Active,Not Active,Not Active,Not Active,Not Active,Not Active,Not Active,–,–,–,–,–,–,–,–,–
Cc1c(N)nc([C@H](CC(N)=O)NC[C@H](N)C(N)=O)nc1C(=O)N[C@H](C(=O)N[C@H](C)[C@@H](O)[C@H](C)C(=O)N[C@H](C(=O)NCCc1nc(-c2nc(C(=O)NCCC[S+](C)C)cs2)cs1)[C@@H](C)O)[C@@H](O[C@@H]1O[C@@H](CO)[C@@H](O)[C@H](O)[C@@H]1O[C@H]1O[C@H](CO)[C@@H](O)[C@H](OC(N)=O)[C@@H]1O)c1c[nH]cn1.[Br-] [BLEOMYCIN A2],Not Active,Not Active,Not Active,Not Active,Not Active,Not Active,Not Active,Not Active,–,Not Active,–,–,–,–,–,–,6.23,–,–
O=C(O)CNCP(=O)(O)O [GLYPHOSATE],Not Active,Not Active,–,–,Not Active,Not Active,Not Active,Not Active,Not Active,Not Active,–,–,–,–,–,–,–,–,–
Nc1nc(F)nc2c1ncn2[C@@H]1O[C@H](CO)[C@@H](O)[C@@H]1O [FLUDARABINE],Not Active,Not Active,Not Active,Not Active,Not Active,Not Active,Not Active,Not Active,Not Active,Not Active,–,–,–,–,–,–,–,–,–
NCC(CC(=O)O)c1ccc(Cl)cc1 (configuration not stated) [BACLOFEN],Not Active,Not Active,Not Active,Not Active,Not Active,Not Active,Not Active,Not Active,Not Active,Not Active,–,–,–,–,–,–,–,–,–
"O=C(Nc1ccc(Cl)c(Cl)c1)c1cc(Cl)cc(Cl)c1O [3,3',4',5-TETRACHLOROSALICYLANILIDE]",Not Active,Not Active,Not Active,Not Active,Not Active,Not Active,Not Active,Not Active,Not Active,Not Active,–,–,–,–,–,–,–,–,–
CC(C)NCC(O)COc1ccc(CC(N)=O)cc1 (configuration not stated) [ATENOLOL],Not Active,Not Active,–,–,Not Active,Not Active,Not Active,Not Active,Not Active,Not Active,–,–,–,–,–,–,–,–,–
CC(N)Cc1c[nH]c2ccc(OCc3cccs3)cc12 (configuration not stated) [BW-723C86],Not Active,Not Active,–,–,Not Active,Not Active,Not Active,Not Active,Not Active,Not Active,–,–,–,–,–,–,–,–,–
NS(=O)(=O)c1cc(C(=O)O)c(NCc2ccco2)cc1Cl [FUROSEMIDE],Not Active,Not Active,–,–,Not Active,Not Active,Not Active,Not Active,Not Active,Not Active,–,–,–,–,–,–,–,–,–
COc1cc(NC(C)CCCN)c2ncccc2c1 (configuration not stated) [PRIMAQUINE],Not Active,Not Active,–,–,Not Active,Not Active,Not Active,Not Active,Not Active,Not Active,–,–,–,–,–,–,–,–,–
CCN(CCO)CCCC(C)Nc1ccnc2cc(Cl)ccc12 (configuration not stated) [HYDROXYCHLOROQUINE],Not Active,Not Active,–,–,Not Active,Not Active,Not Active,Not Active,Not Active,Not Active,–,–,–,–,–,–,–,–,–
c1ccc(Cn2ccnc2)cc1,Not Active,Not Active,–,–,Not Active,Not Active,Not Active,Not Active,Not Active,Not Active,–,–,–,–,–,–,–,–,–
CC(=O)Nc1ccc2c(c1)Cc1ccccc1-2 [2-ACETYLAMINOFLUORENE],Not Active,Not Active,–,–,Not Active,Not Active,Not Active,Not Active,Not Active,Not Active,–,–,–,–,–,–,–,–,–
c1ccc2c(c1)Nc1ccccc1S2 [PHENOTHIAZINE],Not Active,–,–,–,Not Active,Not Active,Not Active,Not Active,Not Active,Not Active,–,–,–,–,–,–,–,4.60,4.71
